How the values were obtained:
[1] = test system: fetal islet β cells; assay: Global cell death / mortality of cultured fetal islets (ethidium bromide permeability); assay type: cell-based; details: SNP (100 μmol/l); pre-treated with taurine 0.3 or 3 mmol/l; both diet groups; dose dependent
Description: Global cell death. Global cell death was analysed using a non-specific staining permeant probe. For this purpose, the culture medium was removed and the dishes were incubated in the dark with 1 ml of 20 μg/ml ethidium bromide for 20 min to stain permeabilized dead cells. The cultures were then fixed with 4% paraformaldehyde in PBS for 10 min, treated with 30% methanol for permeabilization of the remaining of the cells and then mounted in mowiol containing 20 μg/ml of Hoechst 33342, to stain the nuclei.
Physiological and supraphysiological levels of each amino acid were tested. Taurine, if present was either 0.3 mmol/l (physiological) or 3 mmol/l (supraphysiological); methionine, if present was either 0.1 mmol/l (physiological) or 1 mmol/l (supraphysiological); and β-alanine, if present was either 0.3 mmol/l (physiological) or 3 mmol/l (supraphysiological). Supplemental amino acid levels were maintained in the culture medium during SNP treatment. […] Apoptosis was quantified by confocal microscopy using the TUNEL method described in Example 1. Mortality rate was quantified by confocal microscopy using permeant probes, as described in Example 1, to verify quantification of apoptotic rate for both C and LP diet treatments including SNP and taurine.

[2] = test system: fetal islet cells; assay: IL1β-induced apoptosis in cultured fetal islets (TUNEL); assay type: cell-based, Wistar rats; details: IL1β 50 U/ml
Description: The effect of in vitro taurine on the effect of IL1β-induced apoptosis was assessed. Fetal islets were isolated as described above in Example 1. On the 5th day of culture, islets were rinsed twice with serum free DME/F12 medium (1:1, v/v, Gibco, Paisley, Scotland) and were incubated in this medium supplemented with taurine at 0.3 or 3 mmol/l for 48 hours. For the final 24 hours of this incubation, IL1β (Endogen, Woburn, Mass.) was added to the incubation medium at a level of 50 U/ml. Apoptosis was quantified by confocal microscopy using TUNEL method, as outlined in Example 1.

[3] = test system: VEGF; assay: Pancreatic VEGF immunoreactivity with dietary taurine supplementation; assay type: in vivo, Wistar rats; details: decrease by low protein diet; regardless of developmental stage
Description: (§1) Animals and diets were prepared as described in Example 8. The pancreas was removed, and the presence of Fas, Fas ligand, inducible nitric oxide synthase (iNOS) and vascular endothelial growth factor (VEGF) were evaluated in pancreatic sections using immunoreactivity.

[4] = test system: Fas; assay: Islet Fas immunoreactivity with dietary taurine supplementation; assay type: in vivo, Wistar rats; details: post-natal day 14
Description: as §1

[5] = test system: Fas ligand; assay: Islet Fas ligand immunoreactivity with dietary taurine supplementation; assay type: in vivo, Wistar rats; details: post-natal day 14
Description: as §1

[6] = test system: NOD mice; assay: Onset of diabetes (glucosurea) in female NOD offspring after maternal taurine supplementation; assay type: in vivo
Text: Pregnant NOD mice were obtained and maintained on a control diet as described in Example 13. Pregnant mice were either supplemented with taurine in the drinking water (n=51) or were unsupplemented (n=37) throughout pregnancy. The supplemented group received taurine at a concentration of 2.5% (w/v) in drinking water. Considering the average amount of water consumed, this is equivalent to a taurine consumption of about 0.75 g/day per animal. Taurine supplementation ceased post-partum, and offspring were allowed to nurse for 21 days. […] Onset of diabetes was determined by the appearance of glucosurea which was assessed using glucose detection sticks.

[7] = test system: islet cells; assay: Islet cell apoptosis with maternal dietary taurine supplementation (TUNEL); assay type: in vivo, Wistar rats
Description: Animals and diets were prepared, and taurine supplementation in drinking water was conducted as described in Example 7. Islet cells were cultured and treated as described in Example 1. Islet cell apoptosis was determined using the TUNEL method, as described by […] et al., (Endocrinology 1999;140: 4861-4873). Four developmental stages were evaluated, namely: fetal day 21.5 ([…].5) or post-natal day 12 (PN12), 14 (PN14) or 30 (PN30).

[8] = test system: fetal islets; assay: Interaction of dietary and in vitro taurine on SNP- or IL1β-induced apoptosis of fetal islets; assay type: cell-based, Wistar rats
Description: Animals and diets were prepared as described in Example 7. Pancreases were removed and islets were isolated from late gestation fetuses at day 21.5. Neoformed fetal islets obtained after five days of culture from the four diet groups (C, C+Taurine, LP, and LP+Taurine) were compared for their susceptibility to apoptosis following exposure to SNP (100 μmol/l), or IL1β (50 U/ml), with or without in vitro taurine at either physiological (0.3 mmol/l) or supraphysiological (3.0 mmol/l) levels.

[9] = taurine 0.3 mmol/l or 3 mmol/l; acellular
Description: Nitric oxide is a reactive free radical which leads to peroxynitrite formation, another reactive free radical, by interaction with superoxide (NO+OO^−→ONOO^−). […] Luminol-derived chemiluminescence induced by peroxynitrite produced by the decomposition of sydnonimine (SIN-1) was evaluated to investigate the possibility that taurine quenched the peroxynitrite formed from NO.

[10] = test system: NOD mice; assay: Insulitis in NOD mice at 12 weeks after taurine in maternal drinking water (pregnancy and lactation); assay type: in vivo; details: for reduction of incidence of insulitis: 12 weeks of age, vs control animals
Text: Pregnant NOD mice were maintained on a control diet either with or without taurine supplementation in the drinking water throughout pregnancy and lactation. Supplementation of taurine was stopped after weaning. At 12 weeks of age the animals were killed and examined for histological evidence of insulitis within the pancreatic islets. Mice which were examined and found to have evidence of insulitis, were then further scored as peri-islet (slight), less than 50% area of islet (medium) or more than 50% islet area (heavy), as indicative of the stage and/or severity of insulitis.

SMILES: NCCS(=O)(=O)O [taurine, 2-aminoethylsulfonic acid]
- mortality after treatment with SNP, percentage of cell death [1]: significantly diminished
- rate of IL1β-induced apoptosis in islet cells ([2]; C diet group, only the high dose of taurine (3 mmol/l)): decreased significantly
- number of islet cells positive for IL1β-induced apoptosis ([2]; LP diet group, taurine 0.3 mmol/l and 3.0 mmol/l): significantly decreased
- VEGF immunoreactivity in the pancreas [3]: reverses the effect
- immunoreactive Fas within islets [4]: reduced
- Fas ligand presence in islets [5]: reduced
- proportion of female offspring showing diabetes ([6]; at 25 weeks, maternal taurine 2.5% (w/v) in drinking water during pregnancy): about half
- proportion of taurine-supplemented group still not diabetic ([6]; at 50 weeks): about 10%
- islet cell apoptosis ([7]; LP+Taurine vs control group (C), F21.5, PN12, PN14, PN30): either no difference, or a reduction in apoptosis compared to the control group
- islet cell apoptosis ([7]; protein-sufficient (C) animals supplemented with taurine, post-natal days 12 and 14): reduction in apoptosis
- increased apoptotic response of LP fetal islets to SNP or IL1β ([8]; co-incubation with taurine in vitro (0.3 or 3.0 mmol/l)): reversed
- SNP-induced and IL 1β-induced apoptosis in fetal islets ([8]; dietary taurine in low protein diet combined with high local taurine in vitro): synergistically decrease
- increased apoptotic response of LP fetal islets to SNP or IL1β ([8]; maternal supplementation with taurine in vivo): reversed
- concentration of NO released in the presence of SNP [9]: not significantly altered
- proportion of individual islets showing no incidence of insulitis ([10]; female animals exhibiting insulitis, C+Taurine (65% in control diet group)): approximately 50%
- severity of insulitis when it occurs ([10]; female mice exhibiting insulitis, 12 weeks): not lessened
- reduction of incidence of insulitis ([10]; female mice): 80%
- reduction of incidence of insulitis ([10]; male mice): 60%
